Source: patent publication US20250332173A1, “COMPOUNDS AND METHODS FOR MODULATING NUCLEIC ACID SPLICING” (REMIX THERAPEUTICS INC., priority 2021, published 2025)
Like-named read-outs stand apart in the source and are kept apart here.

Experiments:
MYB mRNA = experiment: RT-qPCR splicing assay, MYB canonical junction (CJ) and alternative junction (AJ) mRNA; assay type: cell-based, human; conditions: Homo sapiens; for AC50: increase in MYB alternative junction (AJ) mRNA, read-out: MYB AJ AC50
Method in brief: (§1)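 24 h treatment, 37 °C/5% CO2; A673 or K562; 11-pt 3-fold series, top 10 uM final; DMSO ≤0.25%. Cell lysis with DNase I, then 1-step RT-qPCR. Housekeeping normalization: PPIA (A673), GAPDH or GUSB (K562).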

[1] = system: K562 (human chronic myelogenous leukemia) cells; experiment: Cell Titer Glo 2.0 cell viability assay; assay type: cell-based; conditions: Homo sapiens, K562, 72 h, K562 cells, 72 hours, Cell Titer Glo 2.0; read-out: K562 GI50
HTT mRNA = experiment: RT-qPCR splicing assay, HTT canonical junction (CJ) and alternative junction (AJ) mRNA; assay type: cell-based, human; conditions: Homo sapiens; for AC50: increase in HTT alternative junction (AJ) mRNA, read-out: HTT AJ AC50
Method in brief: as §1

SMN2 mRNA = experiment: RT-qPCR splicing assay, SMN2 canonical junction (CJ) mRNA; assay type: cell-based, human; conditions: Homo sapiens; Table 5 panel; canonical junction qPCR; compound concentration having 50% response in CJ decrease; read-out: SMN2 IC50 (decrease in CJ mRNA levels)
Method in brief: (§2)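 K562/A673 cells, 11-pt 3-fold compound titration from 10 uM final, DMSO ≤0.25%, 24 h 37 °C 5% CO2; lyse (DNase I or Igepal/Tris buffer pH 7.4); RT-qPCR for CJ isoform vs housekeeping gene (GAPDH/GUSB/PPIA).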

Target C = experiment: RT-qPCR splicing assay panel, Target C canonical junction (CJ) mRNA; assay type: cell-based, human; conditions: Homo sapiens; Table 5 panel; canonical junction qPCR; compound concentration having 50% response in CJ decrease; read-out: Target C IC50 (decrease in CJ mRNA levels)
Method in brief: as §2

[2] = Table 5 panel, canonical junction qPCR, compound concentration having 50% response in CJ decrease, read-out: MYB IC50 (decrease in CJ mRNA levels)
[3] = decrease in MYB canonical junction (CJ) mRNA, RT-qPCR, read-out: MYB CJ IC50
[4] = decrease in HTT canonical junction (CJ) mRNA, RT-qPCR, read-out: HTT CJ IC50
[5] = Table 5 panel, canonical junction qPCR, compound concentration having 50% response in CJ decrease, read-out: HTT IC50 (decrease in CJ mRNA levels)

SMILES | IC50 (MYB mRNA; [2]) [µM] | IC50 (MYB mRNA; [3]) [µM] | AC50 (MYB mRNA; RT-qPCR) [µM] | GI50 [1] [µM] | IC50 (HTT mRNA; [4]) [µM] | AC50 (HTT mRNA; RT-qPCR) [µM] | IC50 (HTT mRNA; [5]) [µM] | IC50 (SMN2 mRNA) [µM] | IC50 (Target C) [µM]
Cc1cn2nc(-c3cc(F)c4c(=O)n(C5CCNCC5)cnc4c3)cc(C)c2n1 [Compound 243] | < 0.1 | < 0.1 | < 0.1 | < 0.1 | < 0.1 | < 0.1 | < 0.1 | < 0.1 | < 0.1
Cc1cn2cc(-c3ccc4c(=O)n(C5CCNCC5)cnc4c3)c(C)cc2n1 [Compound 244] | > 10 | > 10 | > 10 | > 10 | > 10 | > 10 | > 10 | 0.1 to 1 | > 10
Cc1nc2c(F)cc(-c3ccc4c(=O)n(C5CCNCC5)cnc4c3)cc2o1 [Compound 245] | 0.1 to 1 | 0.1 to 1 | 0.1 to 1 | 0.1 to 1 | 0.1 to 1 | 0.1 to 1 | 0.1 to 1 | < 0.1 | 0.1 to 1
Cc1cn2cc(-c3ccc4c(=O)n(C5CCN(C)CC5)cnc4c3)c(C)cc2n1 [Compound 246] | 1 to 10 | 1 to 10 | 1 to 10 | 1 to 10 | 1 to 10 | 1 to 10 | 1 to 10 | 1 to 10 | 1 to 10
Cc1cn2cc(-c3ccc4c(c3)CCN(C3CCNCC3)C4=O)cc(F)c2n1 [Compound 247] | 0.1 to 1 | 0.1 to 1 | 0.1 to 1 | 0.1 to 1 | 1 to 10 | 1 to 10 | 1 to 10 | < 0.1 | 1 to 10
Cc1cn2cc(-c3ccc4c(=O)n(C5CCNCC5)ncc4c3)cc(F)c2n1 [Compound 248] | 0.1 to 1 | 0.1 to 1 | 0.1 to 1 | < 0.1 | 0.1 to 1 | < 0.1 | < 0.1 | < 0.1 | 0.1 to 1
Cn1cc2cc(-c3ccc4c(=O)n(C5CCNCC5)ncc4c3)cc(F)c2n1 [Compound 249] | 1 to 10 | 1 to 10 | 1 to 10 | 1 to 10 | 1 to 10 | 1 to 10 | 1 to 10 | 1 to 10 | 1 to 10
Cc1nc2c(F)cc(-c3ccc4c(=O)n(C5CCNCC5)ncc4c3)cc2o1 [Compound 250] | 0.1 to 1 | 0.1 to 1 | 0.1 to 1 | < 0.1 | < 0.1 | < 0.1 | < 0.1 | < 0.1 | 0.1 to 1
Cc1cc(-c2ccc3c(=O)n(C4CCNCC4)ncc3c2)cc2cn(C)nc12 [Compound 251] | 0.1 to 1 | 0.1 to 1 | 0.1 to 1 | 1 to 10 | 0.1 to 1 | 0.1 to 1 | 0.1 to 1 | < 0.1 | 0.1 to 1
Cc1cn2cc(-c3ccc4c(c3)CCN(C3CCNCC3)C4=O)cc(C(F)(F)F)c2n1 [Compound 252] | 1 to 10 | 1 to 10 | 1 to 10 | 1 to 10 | > 10 | > 10 | > 10 | 0.1 to 1 | > 10
Cc1nc2c(F)cc(-c3ccc4c(=O)n(C5CCNCC5)ncc4c3)cc2s1 [Compound 253] | 1 to 10 | 1 to 10 | 1 to 10 | 0.1 to 1 | 1 to 10 | 1 to 10 | 1 to 10 | 0.1 to 1 | 1 to 10
Cc1cn2cc(-c3ccc4c(=O)n(C5CCNCC5)ncc4c3)c(C)cc2n1 [Compound 254] | 1 to 10 | 1 to 10 | 1 to 10 | 1 to 10 | 1 to 10 | 1 to 10 | 1 to 10 | 1 to 10 | 1 to 10
Cc1cn2cc(-c3ccc4c(=O)n(C5CCNCC5)ncc4c3)ncc2n1 [Compound 255] | 1 to 10 | 1 to 10 | 1 to 10 | 0.1 to 1 | 1 to 10 | 1 to 10 | 1 to 10 | 0.1 to 1 | > 10
Cc1cn2cc(-c3ccc4c(=O)n(C5CCNCC5)ncc4c3)cc(Cl)c2n1 [Compound 256] | 0.1 to 1 | 0.1 to 1 | 0.1 to 1 | < 0.1 | 0.1 to 1 | 0.1 to 1 | 0.1 to 1 | < 0.1 | > 10
Cc1cn2cc(-c3ccc4c(=O)n(C5CCNCC5)ncc4c3)cc(C)c2n1 [Compound 257] | 0.1 to 1 | 0.1 to 1 | 0.1 to 1 | < 0.1 | 0.1 to 1 | 0.1 to 1 | 0.1 to 1 | < 0.1 | 1 to 10
Cc1cn2nc(-c3ccc4c(=O)n(C5CCNCC5)ncc4c3)nc2c(C)n1 [Compound 259] | 0.1 to 1 | 0.1 to 1 | 0.1 to 1 | 0.1 to 1 | 0.1 to 1 | 0.1 to 1 | 0.1 to 1 | 0.1 to 1 | 0.1 to 1
Cc1cn2nc(-c3ccc4c(=O)n(C5CCNCC5)ncc4c3)cc2c(C)n1 [Compound 260] | 1 to 10 | 0.1 to 1 | 1 to 10 | 0.1 to 1 | 0.1 to 1 | 0.1 to 1 | 0.1 to 1 | 0.1 to 1 | 1 to 10
O=c1c2ccc(-c3cn[nH]c3)cc2cnn1C1CCNCC1 [Compound 261] | > 10 | > 10 | > 10 | > 10 | > 10 | > 10 | > 10 | 1 to 10 | > 10
Cc1cn2cc(-c3ccc4c(=O)n(C5CCNCC5)ncc4c3)cc(C(F)(F)F)c2n1 [Compound 262] | 1 to 10 | 0.1 to 1 | 1 to 10 | 0.1 to 1 | 1 to 10 | 1 to 10 | 1 to 10 | < 0.1 | 1 to 10
